PMC10046901, “Molecular Analysis of the Superior Efficacy of a Dual Epidermal Growth Factor Receptor (EGFR)-DNA-Targeting Combi-Molecule in Comparison with Its Putative Prodrugs 6-Mono-Alkylamino- and 6,6-Dialkylaminoquinazoline in a Human Osteosarcoma Xenograft Model” (Cells, 2023)

Assay: Plasma and tumor metabolism by LC-MS and LC-MS/MS
Format: in vivo, NSG male mice
Details: 3 h after administration; for in vivo metabolism of administered drug (LC-MS): tumor and plasma; for in vivo metabolism of administered drug (LC-MS) / concentration of released ZR2002 in treated tumors relative to ZR2002-treated tumors: 80 mg/kg oral; for concentration of released ZR2002 in treated tumors relative to ZR2002-treated tumors: tumor, N = 4
Procedure: In order to study the drug pharmacokinetics, 1 last dose (the 11th dose) was administered 3 h prior to sacrifice and after a break of 5 days from the previous drug administration.
At the end of the study, the mice were sacrificed, and the plasma and tumors were collected. The plasma was stored at −80 °C, and the tumor tissues were transversely cut into 2 parts: 1 was immediately frozen in liquid nitrogen and stored at −80 °C for Western blots and LC-MS analysis; the other was fixed in 4% paraformaldehyde and used for histology.
Individual stock solutions of ZR2002 and Nitro-RB10 (IS) were prepared in DMSO at 10 mg/mL and, after, in MeOH at a concentration of 100 μg/mL. Intermediate dilutions were prepared using ACN:water (35:65, v:v). All stock and working solutions were stored at −20 °C and brought to room temperature before use.
The dynamic range for the calibration curve ranged from 0.4 to 150 ng/mL, including 0.4, 1, 5, 10, 50, 80, 100 and 150 ng/mL in plasma and tumor matrix. These standards were prepared by spiking an appropriate volume of a standard spiking solution into the blank extracted plasma or tumor and vortexing. A total of 3 levels of QC samples were run during the analysis, including a low QC of 1 ng/mL, a mid QC of 10 ng/mL and a high QC of 100 ng/mL. These QC samples were prepared by spiking an appropriate volume of the spiking solution into the matrix blank. An appropriate volume of the IS spiking solution was then spiked into the calibration standards and QC samples to generate a final IS concentration of 15 ng/mL in the matrix. All samples were vortexed gently, completing the sample preparation process.
An amount of 50 μL of each plasma sample was deproteinized with 200 µL of cold ACN. The samples were mixed for 10 s, shaken automatically for 10 min and centrifuged for 10 min at 15,000 rpm (21,130 rcf) at 4 °C. After centrifugation, the supernatants were loaded into Captiva-Enhanced Matrix Removal (EMR)-Lipid cartridges (1.0 mL; 40 mg; Agilent, Santa Clara, CA, USA) and settled for 5 min. The supernatants were eluted by applying a positive pressure (2 psi for 2 min) using a positive pressure manifold (PPM 96 processor, Agilent Techn.). The cartridges were washed with ACN:water (8:2, v:v) 100 μL, at 2–4 psi for 2 min, followed by a 1-min period of high pressure (6–9 psi) to drain the cartridges. The elutes were transferred to new tubes and dried under vacuum using a Centrivap sample concentrator (Centrivap Complete^TM, Labconco Corporation, Kansas City, MO, USA) at room temperature. The dried samples were stored at −20 °C before LC-MS analysis. On the day of analysis, the samples were reconstituted in 100 µL of MeOH, vortexed for 10 s, sonicated for 5 min (sonic bath, Symphony, VWR International, Radnor, PA, USA) and centrifuged for 5 min at 15,000 rpm. The supernatants were diluted 60 times in 35% ACN, and an appropriate volume of the IS spiking solution was then spiked into the samples to generate a final IS concentration of 15 ng/mL. At the end of the process, all samples were diluted 120 times. These final solutions were transferred to autosampler vials (350 µL, Thermo Fisher Scientific, Waltham, MA, USA), and 10 µL of each was injected into the LC-MS system.
A weighted piece of tumor was crushed in a mortar with liquid nitrogen. To the tumor powder, 150 μL of water was added before deproteinizing the mixture with 600 µL of cold ACN. The samples were mixed for 10s, sonicated with ice in a sonication bath for 30 min to 1 h (Sonicate bath, VWR, International, Radnor, PA, USA) and centrifuged for 10 min at 15,000 rpm (21,130 rcf) at 4 °C (Centrifuge 5424 R, Eppendorf). After centrifugation, the supernatants were loaded into Captiva-Enhanced Matrix Removal (EMR)-Lipid cartridges (1.0 mL; 40 mg; Agilent) and settled for 5 min. The supernatants were eluted by applying a positive pressure (2 psi for 2 min) using a positive pressure manifold (PPM 96 processor, Agilent Techn.). […]

SMILES	in vivo metabolism of administered drug (LC-MS)	concentration of released ZR2002 in treated tumors relative to ZR2002-treated tumors	concentrations of ZR2002 metabolite in treated tumors and plasma vs ZR2002-treated (tumors and plasma)
ClCCNc1ccc2ncnc(Nc3cccc(Br)c3)c2c1 [ZR2002]	partially metabolized into its deschloroethyl metabolite “RB10” (peak 1) and RB10-N-acetyl (peak 2)		
ClCCN(CCCl)c1ccc2ncnc(Nc3cccc(Br)c3)c2c1 [JS61]	remained largely intact	five times lower	
CN(CCCl)c1ccc2ncnc(Nc3cccc(Br)c3)c2c1 [JS84]	partially intact and largely converted into RB10-Methyl (peak 7), RB10 (1) and RB10-N-Acetyl (2)	five times lower	significantly lower
